Values of other authors in patent US12497429B2, “Saponin-based vaccine adjuvants” (priority 2018, dated 2025).

Details: compared to vaccine alone

In the case of monophosphoryl lipid A [MPL], the “boost of serum Ab titers” value is given as 10-20 fold.
